# T1: replicase complex (Hepatitis C virus genotype 1b, UniProt Q9WMX2)
# T1 construct: expressed in transfected cells; host or cells: HCV replicon cells (Huh-7 derived)
# T1 sequence (Q9WMX2 1658-1711 limits assumed): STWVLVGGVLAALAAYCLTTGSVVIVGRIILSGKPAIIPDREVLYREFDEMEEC
# B1: NS4A-cFLAG (HCV NS4A (1b) with C-terminal FLAG antibody tag) (other)
# chain: STWVLVGGVLAALAAYCLTTGSVVIVGRIILSGKPAIIPDREVLYREFDEMEECDYKDDDDK
# notes: also called NS4A-FLAG; product of pCl-neo-NS4A-cFlag
# B2: HCV NS4A protein (other)
# chain: STWVLVGGVLAALAAYCLTTGSVVIVGRIILSGKPAIIPDREVLYREFDEMEEC
# notes: also called hepatitis C virus NS4A; monomer of p14
# Tests used:
# [1] = tested on: VX-950^R (A156T); test: Susceptibility of VX-950 resistant replicon cell line; type: cell-based, hepatitis C virus; settings: VX-950^R (A156T) versus Huh-9-13
# [2] = tested on: NNI-1^R (M414T); test: Susceptibility of NNI-1 resistant replicon cell line; type: cell-based, hepatitis C virus; settings: NNI-1^R (M414T) versus Huh-9-13
# [3] = tested on: Luc/Parent replicon; test: Luciferase replicon susceptibility, parent; type: cell-based; settings: Hepatitis C virus, Luc/Parent replicon in Huh-7 cells, two independent experiments
# Protocol: (§1) To investigate the genetic basis of resistance to ACH-806 in the resistant replicon cellular lines, specifically the role of C16S and A39V in NS3, and 1585T 1 in NS5B, we introduced these mutations separately into a nonselectable replicon containing a luciferase reporter gene. Following the transfection of the parental replicon RNA molecule and the C16S, A39V and I585T variant replicon RNA molecules into Huh-7 cells, the replication capacity of all replicons was determined as described in Method and Materials. Replicon RNA carrying the A39V mutation replicated as efficiently as its parent, whereas the C16S and I585T mutations caused a slight decrease in the replication capacity (about 75% that of the parental replicon). The susceptibility of these four replicons to ACH-806 as well as to other classes of inhibitors was compared side by side, and the results are summarized in Table 2.
# [4] = tested on: replicon variants carrying either the C16S or A39V mutation; test: Summary of three approaches on mutant replicon variants; type: cell-based, hepatitis C virus; settings: all three approaches
# Protocol: To investigate the genetic basis of resistance to ACH-806 in the resistant replicon cellular lines, specifically the role of C16S and A39V in NS3, and 1585T 1 in NS5B, we introduced these mutations separately into a nonselectable replicon containing a luciferase reporter gene. Following the transfection of the parental replicon RNA molecule and the C16S, A39V and I585T variant replicon RNA molecules into Huh-7 cells, the replication capacity of all replicons was determined as described in Method and Materials. […]
# To further confirm the role of C16S and A39V in conferring resistance to ACH-806, we introduced both mutations, separately, into a selectable replicon which carries the neo gene and the adaptive mutations that differ from the nonselectable replicon. Following transfection of the parental replicon RNA, the C16S replicon RNA and A39V replicon RNA into Huh-7 cells, the susceptibility of these three replicons to ACH-806, as evaluated by the number of colonies formed under the treatment of both G418 and ACH-806, was compared side by side. […]
# A third approach, fragment cloning, was used to reinforce the role of the C16S mutation and to exclude the role of other nonconsensus mutations in conferring resistant to ACH-806. […] The replication capacity of this resulting replicon [Luc/N3-4AR(C16)] was 95% that of its parent [Luc/N3-4AR(S16)] determined as previously described. […]
# [5] = tested on: BILN 2061^R (D168V); test: Susceptibility of BILN 2061 resistant replicon cell line; type: cell-based, hepatitis C virus; settings: BILN 2061^R (D168V) versus Huh-9-13
# [6] = tested on: ACH-806 resistant replicon cellular lines (806R); test: Susceptibility of ACH-806 resistant replicon cellular lines; type: cell-based, hepatitis C virus; settings: for Fold change in EC50: versus Huh-9-13
# [7] = tested on: Luc/NS5B-I585T; type: cell-based, hepatitis C virus
# Protocol: as §1
# [8] = tested on: parental replicon cellular line, Huh-9-13; test: Susceptibility of parental replicon cellular line; type: cell-based, hepatitis C virus; settings: for EC50: Hepatitis C virus, read-out: EC50 ± SD
# [9] = tested on: NM107^R (S282T); test: Susceptibility of NM107 resistant replicon cell line; type: cell-based, hepatitis C virus; settings: NM107^R (S282T) versus Huh-9-13
# [10] = tested on: Luc/NS3-4A^R(C16) replicon; test: Fragment-cloned luciferase replicon susceptibility, C16 revertant; type: cell-based, hepatitis C virus
# Description: (§2) A third approach, fragment cloning, was used to reinforce the role of the C16S mutation and to exclude the role of other nonconsensus mutations in conferring resistant to ACH-806. A ˜3 kb fragment covering the coding region of NS3, NS4A, and part of NS4B was amplified by RT-PCR from total RNA isolated from ACH-806 resistant clone #28. The PCR product was cloned into the nonselectable replicon containing a luciferase reporter gene. Replicon RNA molecules were made from eight individual clones and were transfected into Huh-7 cells to determine the replication capacity by luciferase activity. From the eight clones, two were able to replicate efficiently and sequencing of the entire cloned fragment in these two clones confirmed the existence of C16S mutation in addition to other nonconsensus mutations. The serine at the amino acid residue of NS3 in one of these two clones was then converted back to cysteine using site-directed mutagenesis, leaving other nonconsensus mutations unchanged. The replication capacity of this resulting replicon [Luc/N3-4AR(C16)] was 95% that of its parent [Luc/N3-4AR(S16)] determined as previously described. After transfection into Huh-7 cells, the susceptibility of both replicons was compared. The reversion of serine back to cysteine at amino acid residue 16 of NS3 increased the susceptibility of the replicon to ACH-806 about 10 fold and maintained the susceptibility to other classes of HCV inhibitors (Table 3). Similar results were also obtained with a fragment containing NS3, 4A and part of 4B derived from a resistant cell line carrying A39V mutation (data not shown).
# [11] = tested on: Luc/NS3-A39V replicon; test: Luciferase replicon susceptibility, NS3 A39V; type: cell-based, hepatitis C virus
# Protocol: as §1
# [12] = tested on: HCV replicon; test: HCV replicon assay (Example 1); type: cell-based; settings: Hepatitis C virus; Huh-7 cells expressing the HCV replicon
# Protocol: The ability to inhibit viral replication of Hepatitis C can be tested using the HCV replicon expressed in cultured cells in which an HCV replicon construct has been incorporated. The HCV replicon system was described by Bartenschlager, et. al (Science, 285, pp. 110-113, 1999). The replicon system is predictive of in vivo activity against HCV; compounds that are active in humans uniformly evidence activity in the replicon assay.
# In this assay HCV replicon containing cells are treated with different concentrations of the test compound to ascertain the ability of the test compound to suppress replication of the HCV replicon. As a positive control, HCV replicon-containing cells are treated with different concentrations of interferon alpha, a known inhibitor of HCV replication. The replicon assay system includes Neomycin Phosphotransferase (NPT) as a component of the replicon itself as a marker allowing convenient detection of the transcription of replicon gene products in the host cell. Cells in which the HCV replicon is actively replicating have high levels of NPT; the level of NPT is proportional to HCV replication. […] The NPT level of each sample may be measured using a captured ELISA. […]
# HCV replicon-containing cells are examined under a microscope to ensure that cells growing well. […] The cells are counted. […]
# [13] = biological target: T1, replicase complex; test: Replicase activity in treated replicon cells (FIG. 3); type: cell-based; settings: 16 hour treatment of replicon cells, concentrations as low as 50 μM
# Description: FIG. 3. ACH-806 is a potent inhibitor of functional replicase complex production.
# [14] = tested on: Luc/NS3-C16S replicon; test: Luciferase replicon susceptibility, NS3 C16S; type: cell-based, hepatitis C virus
# Protocol: as §1
# [15] = tested on: NI-1^R (S282T); test: Susceptibility of NI-1 resistant replicon cell line; type: cell-based, hepatitis C virus; settings: NI-1^R (S282T) versus Huh-9-13
# [16] = tested on: Luc/NS3-4A^R(S16) replicon; test: Fragment-cloned luciferase replicon susceptibility, S16; type: cell-based; settings: Hepatitis C virus
# Description: as §2, with “The reversion of serine back to cysteine at amino acid residue 16 of NS3 increased the susceptibility of the replicon to ACH-806 about 10 fold and maintained the susceptibility to other classes of HCV inhibitors (Table 3). Similar results were also obtained with a fragment containing NS3, 4A and part of 4B derived from a resistant cell line carrying A39V mutation (data not shown).” left out
# [17] = tested on: C16S or A39V replicon variant; test: Colony formation with selectable replicon under G418 and ACH-806; type: cell-based, hepatitis C virus; settings: C16S or A39V versus parental selectable replicon
# Description: To further confirm the role of C16S and A39V in conferring resistance to ACH-806, we introduced both mutations, separately, into a selectable replicon which carries the neo gene and the adaptive mutations that differ from the nonselectable replicon. Following transfection of the parental replicon RNA, the C16S replicon RNA and A39V replicon RNA into Huh-7 cells, the susceptibility of these three replicons to ACH-806, as evaluated by the number of colonies formed under the treatment of both G418 and ACH-806, was compared side by side. Again, an approximately 10-fold reduction in the susceptibility of C16S or A39V replicon variant to ACH-806 was observed.
# [18] = biological target: the molecule itself; test: Western blot of transfected cell lysate, treated with ACH-806
# [19] = biological target: the molecule itself; test: anti-NS4A immunoprecipitation and immunoblot of replicon cells or NS4A-transfected cells; dimer promoted by the compound ACH-806
molecule,measurement,setting,value
"CCCCCOc1ccc(NC(=S)NC(=O)c2cccnc2)cc1C(F)(F)F [ACH-806, 1-nicotinoyl-3-(4-(pentyloxy)-3-(trifluoromethyl)phenyl)thiourea]",Fold change in EC50,[1],0.6
same,Fold change in EC50,[2],0.9
same,EC50,[3]; read-out: Potency EC50,10 ± 10 nM
same,EC90,[3]; read-out: Potency EC90,80 ± 10 nM
same,decrease in the susceptibility,[4],10-15 fold
same,Fold change in EC50,[5],1.1
same,Fold change in EC50,"[6]; 806^R #6 (Selection 2), NS3 A39V",18.6
same,Fold change in EC50,"[6]; 806^R #8 (Selection 2), NS3 A39V",9.5
same,Fold change in EC50,"[6]; 806^R #9 (Selection 2), NS3 A39V",11.5
same,Fold change in EC50,"[6]; 806^R #22 (Selection 1), NS3 C16S",13.9
same,Fold change in EC50,"[6]; 806^R #23 (Selection 1), NS3 C16S",18.6
same,Fold change in EC50,"[6]; 806^R #24 (Selection 1), NS3 C16S",11.2
same,Fold change in EC50,"[6]; 806^R #25 (Selection 1), NS3 C16S",14.9
same,Fold change in EC50,"[6]; 806^R #28 (Selection 1), NS3 C16S",21.3
same,Average fold change in EC50,[6]; average over 806^R cell lines,14.9
same,"Fold change in potency, EC50",[7],0.7 ± 0.1
same,"Fold change in potency, EC90",[7],1.1 ± 0.1
same,EC50,[8],40 nM
same,Fold change in EC50,[8]; Parental cell line (Table 1),1.0
same,Fold change in EC50,[8]; Parental cell line (Table 4),1.0
same,Fold change in EC50,[9],0.5
same,increase of susceptibility on reversion of serine to cysteine at residue 16 of NS3,[10]; C16 revertant versus S16 replicon,about 10 fold
same,EC50,[10]; Hepatitis C virus,20 nM
same,EC90,[10]; Hepatitis C virus,240 ± 10 nM
same,"Fold change in potency, EC50","[11]; Luc/NS3-A39V versus Luc/Parent replicon, one experiment",14
same,"Fold change in potency, EC50",[11]; {},14.0
same,"Fold change in potency, EC90",[11]; {},13.7
same,EC50,[12],14 nM
same,reduction of replicase activity,[13],more than 50%
same,"Fold change in potency, EC50",[14]; Luc/NS3-C16S versus Luc/Parent replicon,12
same,"Fold change in potency, EC50",[14]; {},11.1 ± 1.0
same,"Fold change in potency, EC90",[14]; {},11.3 ± 0.9
same,Fold change in EC50,[15],0.8
same,EC50,[16],270 ± 40 nM
same,EC90,[16],2350 ± 240 nM
same,reduction in the susceptibility (number of colonies formed),[17],approximately 10 fold
COc1ccc2c(O[C@@H]3C[C@H]4C(=O)N[C@]5(C(=O)O)C[C@H]5/C=C\CCCCC[C@H](NC(=O)OC5CCCC5)C(=O)N4C3)cc(-c3csc(NC(C)C)n3)nc2c1 [BILN 2061],Fold change in EC50,[1],>100
same,Fold change in EC50,[2],2.8
same,Fold change in EC50,[5],>100
same,EC50,[8],1.2 nM
same,Fold change in EC50,[8]; Parental cell line (Table 4),1.0
same,Fold change in EC50,[9],1.1
same,Fold change in EC50,[15],1.4
C[C@@]1(O)[C@H](O)[C@@H](CO)O[C@H]1n1ccc(N)nc1=O [NM107],Fold change in EC50,[8]; Parental cell line (Table 4),1.0
same,Fold change in EC50,[9],30.7
same,Fold change in EC50,[15],>68.7
CCC[C@H](NC(=O)[C@@H]1[C@H]2CCC[C@H]2CN1C(=O)[C@@H](NC(=O)[C@@H](NC(=O)c1cnccn1)C1CCCCC1)C(C)(C)C)C(=O)C(=O)NC1CC1 [VX-950],Fold change in EC50,[2],2.3
same,Fold change in EC50,[5],2.9
same,EC50,[8],610 nM
same,Fold change in EC50,[8]; Parental cell line (Table 4),1.0
same,Fold change in EC50,[9],0.3
B1,binding result,[18],binds
B2,binding result,[19],binds

# Source: patent US20100093018A1, “CELLS […] PROTEINS AND ASSAYS USING SUCH CELLS” (ACHILLION PHARMACEUTICALS, INC., priority 2007, published 2010)
